“Also recorded” adds a separate entry of the source.
Tests used:
Assay type in all cases: cell-based, human
[1] = tested on: cGAS/STING pathway; assay: Western blot of cGAS/STING pathway
Method: Cell lysis was performed in RIPA buffer (Boston Bio Products) supplemented with Halt protease and phosphatase inhibitor cocktail (ThermoFisher Scientific). SDS-PAGE was performed on NuPage Bis-Tris gels (ThermoFisher Scientific) using MOPS or MES running buffer. Gels were dry transferred onto 0.45 μm nitrocellulose membranes using the iBlot® Dry Blotting System (ThermoFisher Scientific). The following Abs were purchased from Cell Signaling Technology: EIF2A (#5324), p-EIF2A (#3398), ATF4 (#11815), CHOP (2895), CALR (#12238), cGAS (#15102), TBK1 (#3504), pTBK1 (#5483), pIRF3 (#29047), STING (#13647). GAPDH (#2118) and B-ACTIN (#4970) were used as loading controls.

[2] = tested on: T cells; assay: Analysis of T cell priming (co-culture of MM cells, DCs and T cells)
Method: DCs were generated from freshly isolated PBMCs as previously described. T cells were negatively selected from CD14− PBMCs using the Pan T cell Isolation Kit (Miltenyi Biotec) and frozen until immature DCs were generated. Either untreated or BTZ-treated MM cells were co-cultured with DCs and T cells for 5 days. T cells and DCs were also cultured in the absence of MM cells and in the presence of BTZ to assess the direct effects of drug on T cells and DCs. After 5 day co-culture, cells were treated with Dynabeads™ Human T-Activator CD3/CD28 (Cat. #11131D, ThermoFisher Scientific) 5 h before analysis, and with GolgiStop™ and GolgiPlug™ (Cat. #554724 and Cat. #555029, BD Biosciences) 3 h before analysis, following the manufacturer's instructions. Cells were then collected and T cell populations were analyzed by CyTOF analysis.
DCs were generated from healthy donors PBMCs as described above (“Generation of Mo-DCs” section). T cells were negatively selected from CD14-PBMCs from the same donors using the Pan T cell Isolation Kit (Miltenyi Biotec) and frozen until immature DCs were generated. Either untreated or BTZ-treated multiple myeloma cells were co-cultured with DCs and T cells for 5 days. T cells and DCs were similarly cultured in the absence of multiple myeloma cells and in the presence of BTZ. Before analysis, cells were treated with Dynabeads™ Human T-Activator CD3/CD28 (#11131D, ThermoFisher Scientific), and with GolgiStop™ and GolgiPlug™ (#554724 and #555029, BD Biosciences). T cell populations were analyzed using 10 color flow-cytometry with the following Abs: CD3-BV605 (#317322), CD8-FITC (#344704), CD4-PerCP/Cyanine5.5 (#317428), CD45RO-APC (#304210), CCR7-PE (#353204), CD69-PE/Cyanine7 (#310912), and IL-2-BV785 (#500348), IFNγ-BV421 (#502532) (BioLegend); and PD1-Super Bright 702 (#67-998-582). LIVE/DEAD™ Fixable Aqua dead Cell Stain(#L34966) (ThermoFisher Scientific) was also added to discriminate dead cells. Intracellular staining for IL-2 and IFNγ was performed using the Fixation/Permeabilization Solution Kit (BD Biosciences).
When T cell experiments were performed using patient multiple myeloma cells, the entire population of autologous BMMCs was cultured in presence and absence of BTZ and analyzed after 5 days. Data from experiments performed using multiple myeloma cell lines were analyzed with a bioinformatic semiautomated pipeline (Perez et al. (2020) Blood; 136(2):199-209). Briefly, flow cytometry files were entered in a custom R script which includes different bioinformatic algorithms and has been designed to reduce the impact of technical and instrumental differences, minimize the variability of manual analysis, and reveal full cellular diversity based on automatic semi-supervised clustering. Data from primary MM patients were manually analyzed by using Infinicyt 2.0 (Cytognos, Salamanca, Spain).

[3] = tested on: AMO1, H929 and KMS11 MM cells; assay: Cell surface exposure of CALR (flow cytometry)
Method: (§1) Multiple myeloma (MM) cells were seeded in 12-well plates (2×10^5 per well), treated with BTZ for 16 h at indicated concentrations, and then stained with Alexa Fluor647® anti-calreticulin antibody (ab196159, Abcam) and 7-AAD. Analysis of fluorescence intensity on 7-AAD negative cells was assessed using BD LRSFortessa™ X-20 flow cytometer.
as §1, with “MM” for “Multiple myeloma (MM)”, “cells” for “cells was assessed”, “LRSFortessa” for “LRSFortessa™”

`CC(C)C[C@H](NC(=O)[C@H](Cc1ccccc1)NC(=O)c1cnccn1)B(O)O` [BTZ, bortezomib] was tested, and the “cGAS/STING pathway activation (cGAS, pTBK1, pIRF3)” value ([1]; AMO1 (BTZ 5-10 nM, 16 h) and NCI-H929 WT) was “induces accumulation of the cytosolic DNA sensor cGAS; also recorded: induces IFN-I signaling and promotes T cell activation via cGAS/STING pathway”, the cGAS level ([1]; AMO1 STING^KO, BTZ 5 nM) was “significantly accumulated cGAS” and the p-TBK1 downstream signaling ([1]; AMO1 STING^KO, BTZ 5 nM) was “blocked activation of downstream signaling including p-TBK1”. For the same molecule, the “T cell subsets (CD4+ EM, total CD8+, CD8+ EM)” value ([2]; BTZ-treated AMO1 STING^KO vs WT) was “no significant increase of CD4+EM; total CD8+; and CD8+EM cells”, the “T cell subsets (CD4+ EM, total CD8+, CD8+ EM, CD8+ TEMRA)” value ([2]; BTZ-treated AMO1 or H929 cells with DCs and T cells, 5 days) was “significant increase of CD4+ effector memory (EM); total CD8+; CD8+EM and CD8+ terminally differentiated EM (TEMRA) cells” and the “T cell subsets / T cell maturation” value ([2]; DCs and T cells with BTZ 5 nM in the absence of MM cells, 5 days) was “not observed by treating DCs and T cells with BTZ in the absence of multiple myeloma cells; also recorded: does not induce T cell maturation”. For the same molecule, the “T cell phenotype / priming (CyTOF)” value ([2]; DCs primed by BTZ-treated AMO1 GABARAP^KO) was “led to T cell exhaustion; also recorded: GABARAP^KO blocks T cell priming by DCs after BTZ treatment”, the “CD4+ T cell phenotype (CyTOF)” value ([2]; DCs primed by BTZ-treated AMO1 WT) was “switched CD4+ T cells towards an effector memory function” and the “CD4+ and CD8+ T cell populations” value ([2]; autologous BMMCs from MM patients, BTZ 5 nM, 5 days) was “confirmed the phenotypic changes in both CD4+ and CD8+ T cell populations”. The “CALR exposure on cell surface” value ([3]; AMO1, H929 WT, BTZ 1-10 nM, 16 h, viable (7-AAD negative) cells) was “triggers calreticulin (CALR; also referred to as CRT) exposure by cancer cells; also recorded: can induce hallmarks of ICD in human and murine MM cell lines; also recorded: dose-dependent increase of CTLR exposure”, the “CALR exposure on cell surface” value ([3]; AMO1 STING^KO, BTZ 5 nM, 16 h) was “did not alter CALR exposure process” and the “CALR exposure on cell surface” value ([3]; AMO1 and H929 GABARAP^KO clones) was “did not increase CRT exposure; also recorded: GABARAP^KO blocks CALR exposure upon BTZ”. For the same molecule, the “CALR exposure on cell surface” value ([3]; AMO1 and H929 GABARAP^KO clones, listed as Bortezomib) was “did not induce CALR exposure in MM cells due to GABARAP deletion” and the “CALR exposure on cell surface” value ([3]; KMS11 cells (monoallelic deletion of GABARAP)) was “did not lead to an increase of CRT exposure”.
